In patent US20020065219A1, “Water soluble thiazolyl peptide derivatives” (priority 2000, published 2002):
Converted amounts (≈) assume the structure as drawn. Like-named read-outs stand apart in the source and are kept apart here.

Tests used:
Assay in all cases: MIC, broth micro dilution assay (NCCLS)
Assay type in all cases: cell-based
[1] = test system: Staphylococcus aureus A15090
[2] = test system: Streptococcus pneumoniae A28272
[3] = test system: Enterococcus faecalis A20688
[4] = Mueller-Hinton medium, 35° C., 18 hours
[5] = 50% Mueller-Hinton medium and 50% Todd Hewitt medium, 35° C., 18 hours

| SMILES | MIC (μg/mL) against Staphylococcus aureus A15090 [1] [µg/mL] | MIC (μg/mL) against Streptococcus pneumoniae A28272 [2] [µg/mL] | MIC (μg/mL) against Enterococcus faecalis A20688 [3] [µg/mL] | MIC (μg/mL) against Staphylococcus aureus A15090 [1, 4] [µg/mL] | MIC (μg/mL) against Streptococcus pneumoniae A28272 [2, 5] [µg/mL] | MIC (μg/mL) against Enterococcus faecalis A20688 [3, 4] [µg/mL] | also measured |
| --- | --- | --- | --- | --- | --- | --- | --- |
| CO/C(C)=C1/NC(=O)C(C(C)O)NC(=O)c2csc(n2)-c2cc(O)c(-c3nc(C(=O)NC(CN4CCN(c5ccncc5)CC4)C(N)=O)cs3)nc2-c2csc(n2)C2COC(=O)c3c4c5c(cccc5n3O)COC(=O)C(O[C@H]3C[C@](C)(O)[C@H](N(C)C)[C@H](C)O3)C(OC4)C(NC(=O)c3csc1n3)c1nc(cs1)C(=O)N2 (stereo partly drawn) [Example 52] | 0.5 (≈ 0.312 µM) | 0.5 (≈ 0.312 µM) | 1.0 (≈ 0.625 µM) |  |  |  |  |
| CNCCNCC(NC(=O)c1csc(-c2nc3c(cc2O)-c2nc(cs2)C(=O)NC(C(C)O)C(=O)N/C(=C(\C)OC)c2nc(cs2)C(=O)NC2c4nc(cs4)C(=O)NC(COC(=O)c4c5c6c(cccc6n4O)COC(=O)C(O[C@H]4C[C@](C)(O)[C@H](N(C)C)[C@H](C)O4)C2OC5)c2nc-3cs2)n1)C(N)=O (stereo partly drawn) [Example 28] | 0.25 (≈ 0.165 µM) | 0.03 (≈ 0.0198 µM) | 0.5 (≈ 0.331 µM) |  |  |  |  |
| COC(C)=C1NC(=O)C(C(C)O)NC(=O)c2csc(n2)-c2cc(O)c(-c3nc(C(=O)NC(CN(C)CCCNc4ccncc4)C(N)=O)cs3)nc2-c2csc(n2)C2COC(=O)c3c4c5c(cccc5n3O)COC(=O)C(OC3CC(C)(O)C(N(C)C)C(C)O3)C(OC4)C(NC(=O)c3csc1n3)c1nc(cs1)C(=O)N2 (stereo not drawn) [Example 83] |  |  |  | 1.0 (≈ 0.624 µM) | 0.25 (≈ 0.156 µM) | 0.5 (≈ 0.312 µM) |  |
| C/C=C1\NC(=O)C(C(C)O)NC(=O)c2csc(n2)-c2cc(O)c(-c3nc(C(=O)NC(CN(C)CCCn4ccnc4)C(N)=O)cs3)nc2-c2csc(n2)C2CSC(=O)c3[nH]c4cccc(c4c3C)COC(=O)C(O)CC(NC(=O)c3csc1n3)c1nc(cs1)C(=O)N2 (stereo not drawn) [Example 101] |  |  |  |  |  |  | MIC ([1]; Staphylococcus aureus, A15090, Mueller-Hinton medium, 35° C., 18 hours, read-out: MIC (μg/mL) against Staphylococcus aureus A15090): 0.125 µg/mL (≈ 0.0918 µM); MIC ([2]; Streptococcus pneumoniae, A28272, 50% Mueller-Hinton medium and 50% Todd Hewitt medium, 35° C., 18 hours, read-out: MIC (μg/mL) against Streptococcus pneumoniae A28272): 0.003 µg/mL (≈ 0.0022 µM); MIC ([3]; Enterococcus faecalis, A20688, Mueller-Hinton medium, 35° C., 18 hours, read-out: MIC (μg/mL) against Enterococcus faecalis A20688): 0.125 µg/mL (≈ 0.0918 µM) |
| COC(C)=C1NC(=O)C(C(C)O)NC(=O)c2csc(n2)-c2cc(O)c(-c3nc(C(=O)NC(CN4CC5CC4CN5C)C(N)=O)cs3)nc2-c2csc(n2)C2COC(=O)c3c4c5c(cccc5n3O)COC(=O)C(OC3CC(C)(O)C(N(C)C)C(C)O3)C(OC4)C(NC(=O)c3csc1n3)c1nc(cs1)C(=O)N2 (stereo not drawn) [Example 73] | 0.25 (≈ 0.161 µM) | 0.015 (≈ 0.00968 µM) | 2.0 (≈ 1.29 µM) |  |  |  |  |
| COC(C)=C1NC(=O)C(C(C)O)NC(=O)c2csc(n2)-c2cc(O)c(-c3nc(C(=O)NC(CN4CCN(Cc5nc(OC)cc(OC)n5)CC4)C(N)=O)cs3)nc2-c2csc(n2)C2COC(=O)c3c4c5c(cccc5n3O)COC(=O)C(OC3CC(C)(O)C(N(C)C)C(C)O3)C(OC4)C(NC(=O)c3csc1n3)c1nc(cs1)C(=O)N2 (stereo not drawn) [Example 77] | 0.125 (≈ 0.0746 µM) | 0.015 (≈ 0.00895 µM) | 0.5 (≈ 0.298 µM) |  |  |  |  |
| COC(C)=C1NC(=O)C(C(C)O)NC(=O)c2csc(n2)-c2cc(O)c(-c3nc(C(=O)NC(CN4CC5CC4CN5C)C(N)=O)cs3)nc2-c2csc(n2)C2COC(=O)c3c4c5c(cccc5n3O)COC(=O)C(OC3CC(C)(O)C(N(C)C)C(C)O3)C(OC4)C(NC(=O)c3csc1n3)c1nc(cs1)C(=O)N2 (stereo not drawn) [Example 74] | 0.5 (≈ 0.323 µM) | 0.015 (≈ 0.00968 µM) | 2.0 (≈ 1.29 µM) |  |  |  |  |
| CO/C(C)=C1/NC(=O)C(C(C)O)NC(=O)c2csc(n2)-c2cc(O)c(-c3nc(C(=O)NC(CN[C@@H](C)c4ccccc4)C(N)=O)cs3)nc2-c2csc(n2)C2COC(=O)c3c4c5c(cccc5n3O)COC(=O)C(O[C@H]3C[C@](C)(O)[C@H](N(C)C)[C@H](C)O3)C(OC4)C(NC(=O)c3csc1n3)c1nc(cs1)C(=O)N2 (stereo partly drawn) [Example 61] |  |  |  | 0.25 (≈ 0.16 µM) | 0.03 (≈ 0.0192 µM) | 0.25 (≈ 0.16 µM) |  |
| CO/C(C)=C1/NC(=O)C(C(C)O)NC(=O)c2csc(n2)-c2cc(O)c(-c3nc(C(=O)NC(CN4CCC[C@H]4CN4CCCC4)C(N)=O)cs3)nc2-c2csc(n2)C2COC(=O)c3c4c5c(cccc5n3O)COC(=O)C(O[C@H]3C[C@](C)(O)[C@H](N(C)C)[C@H](C)O3)C(OC4)C(NC(=O)c3csc1n3)c1nc(cs1)C(=O)N2 (stereo partly drawn) [Example 65] | 0.03 (≈ 0.0188 µM) | 2.0 (≈ 1.26 µM) | 1.0 (≈ 0.628 µM) |  |  |  |  |
| CO/C(C)=C1/NC(=O)C(C(C)O)NC(=O)c2csc(n2)-c2cc(O)c(-c3nc(C(=O)NC(CN4CCN(C(C)=O)CC4)C(N)=O)cs3)nc2-c2csc(n2)C2COC(=O)c3c4c5c(cccc5n3O)COC(=O)C(O[C@H]3C[C@](C)(O)[C@H](N(C)C)[C@H](C)O3)C(OC4)C(NC(=O)c3csc1n3)c1nc(cs1)C(=O)N2 (stereo partly drawn) [Example 21] |  |  |  | 0.5 (≈ 0.319 µM) | 0.03 (≈ 0.0192 µM) | 2.0 (≈ 1.28 µM) |  |
| CO/C(C)=C1/NC(=O)C(C(C)O)NC(=O)c2csc(n2)-c2cc(O)c(-c3nc(C(=O)NC(CN(CCCN(C)C)CCCN(C)C)C(N)=O)cs3)nc2-c2csc(n2)C2COC(=O)c3c4c5c(cccc5n3O)COC(=O)C(O[C@H]3C[C@](C)(O)[C@H](N(C)C)[C@H](C)O3)C(OC4)C(NC(=O)c3csc1n3)c1nc(cs1)C(=O)N2 (stereo partly drawn) [Example 27] |  |  |  | 4.0 (≈ 2.46 µM) | 0.0005 (≈ 0.000308 µM) | 2.0 (≈ 1.23 µM) |  |
| CO/C(C)=C1/NC(=O)C(C(C)O)NC(=O)c2csc(n2)-c2cc(O)c(-c3nc(C(=O)NC(CN(C)CCCn4ccnc4)C(N)=O)cs3)nc2-c2csc(n2)C2COC(=O)c3c4c5c(cccc5n3O)COC(=O)C(O[C@H]3C[C@](C)(O)[C@H](N(C)C)[C@H](C)O3)C(OC4)C(NC(=O)c3csc1n3)c1nc(cs1)C(=O)N2 (stereo partly drawn) [Example 41] |  |  |  | 0.5 (≈ 0.317 µM) | 0.125 (≈ 0.0793 µM) | 0.5 (≈ 0.317 µM) |  |
| CO/C(C)=C1/NC(=O)C(C(C)O)NC(=O)c2csc(n2)-c2cc(O)c(-c3nc(C(=O)NC(CNCCOCCOCCO)C(N)=O)cs3)nc2-c2csc(n2)C2COC(=O)c3c4c5c(cccc5n3O)COC(=O)C(O[C@H]3C[C@](C)(O)[C@H](N(C)C)[C@H](C)O3)C(OC4)C(NC(=O)c3csc1n3)c1nc(cs1)C(=O)N2 (stereo partly drawn) [Example 55] | 0.25 (≈ 0.158 µM) | 0.06 (≈ 0.0378 µM) | 0.5 (≈ 0.315 µM) |  |  |  |  |
| CNC(=O)N(CCN(C)C)CC(NC(=O)c1csc(-c2nc3c(cc2O)-c2nc(cs2)C(=O)NC(C(C)O)C(=O)N/C(=C(\C)OC)c2nc(cs2)C(=O)NC2c4nc(cs4)C(=O)NC(COC(=O)c4c5c6c(cccc6n4O)COC(=O)C(OC4CC(C)(O)C(N(C)C)C(C)O4)C2OC5)c2nc-3cs2)n1)C(N)=O (stereo not drawn) [Example 110] | 0.5 (≈ 0.316 µM) | 0.03 (≈ 0.019 µM) | 2.0 (≈ 1.26 µM) |  |  |  |  |
| CO/C(C)=C1/NC(=O)C(C(C)O)NC(=O)c2csc(n2)-c2cc(O)c(-c3nc(C(=O)NC(CN(C)CC(O)C(O)C(O)C(O)CO)C(N)=O)cs3)nc2-c2csc(n2)C2COC(=O)c3c4c5c(cccc5n3O)COC(=O)C(O[C@H]3C[C@](C)(O)[C@H](N(C)C)[C@H](C)O3)C(OC4)C(NC(=O)c3csc1n3)c1nc(cs1)C(=O)N2 (stereo partly drawn) [Example 31] |  |  |  | 0.125 (≈ 0.0766 µM) | 0.125 (≈ 0.0766 µM) | 1.0 (≈ 0.612 µM) |  |
| CO/C(C)=C1/NC(=O)C(C(C)O)NC(=O)c2csc(n2)-c2cc(O)c(-c3nc(C(=O)NC(CN4CCN(CCOCCO)CC4)C(N)=O)cs3)nc2-c2csc(n2)C2COC(=O)c3c4c5c(cccc5n3O)COC(=O)C(O[C@H]3C[C@](C)(O)[C@H](N(C)C)[C@H](C)O3)C(OC4)C(NC(=O)c3csc1n3)c1nc(cs1)C(=O)N2 (stereo partly drawn) [Example 49] |  |  |  | 0.5 (≈ 0.31 µM) | 0.5 (≈ 0.31 µM) | 2.0 (≈ 1.24 µM) |  |
| COC(C)=C1NC(=O)C(C(C)O)NC(=O)c2csc(n2)-c2cc(O)c(-c3nc(C(=O)NC(CSCC(=O)O)C(N)=O)cs3)nc2-c2csc(n2)C2COC(=O)c3c4c5c(cccc5n3O)COC(=O)C(O)C(OC4)C(NC(=O)c3csc1n3)c1nc(cs1)C(=O)N2 (stereo not drawn) [Example 95] |  |  |  | 0.5 (≈ 0.368 µM) | 0.03 (≈ 0.0221 µM) | 4.0 (≈ 2.94 µM) |  |
| CO/C(C)=C1/NC(=O)C(C(C)O)NC(=O)c2csc(n2)-c2cc(O)c(-c3nc(C(=O)NC(CNCc4cc(OC)c(OC)c(OC)c4)C(N)=O)cs3)nc2-c2csc(n2)C2COC(=O)c3c4c5c(cccc5n3O)COC(=O)C(O[C@H]3C[C@](C)(O)[C@H](N(C)C)[C@H](C)O3)C(OC4)C(NC(=O)c3csc1n3)c1nc(cs1)C(=O)N2 (stereo partly drawn) [Example 70] | 0.25 (≈ 0.153 µM) | 0.06 (≈ 0.0367 µM) | 4.0 (≈ 2.45 µM) |  |  |  |  |
| CO/C(C)=C1/NC(=O)C(C(C)O)NC(=O)c2csc(n2)-c2cc(O)c(-c3nc(C(=O)NC(CN(C)CCO)C(N)=O)cs3)nc2-c2csc(n2)C2COC(=O)c3[nH]c4cccc5c4c3COC(C(O[C@H]3C[C@](C)(O)[C@H](N(C)C)[C@H](C)O3)C(=O)OC5)C(NC(=O)c3csc1n3)c1nc(cs1)C(=O)N2 (stereo partly drawn) [Example 92] |  |  |  | 0.125 (≈ 0.0835 µM) | 0.0005 (≈ 0.000334 µM) | 0.125 (≈ 0.0835 µM) |  |
| CNCCN(C)CC(NC(=O)c1csc(-c2nc3c(cc2O)-c2nc(cs2)C(=O)NC(C(C)O)C(=O)N/C(=C(\C)OC)c2nc(cs2)C(=O)NC2c4nc(cs4)C(=O)NC(COC(=O)c4c5c6c(cccc6n4O)COC(=O)C(O[C@H]4C[C@](C)(O)[C@H](N(C)C)[C@H](C)O4)C2OC5)c2nc-3cs2)n1)C(N)=O (stereo partly drawn) [Example 23] |  |  |  | 0.06 (≈ 0.0393 µM) | 0.001 (≈ 0.000655 µM) | 0.5 (≈ 0.328 µM) |  |
